Results on eleven compounds are retold here after ChEMBL document CHEMBL2331111, “Antioxidant and anti-inflammatory meroterpenoids from the brown alga Cystoseira usneoides” (J Nat Prod, 2013).

Molecules are shown by their SMILES. The source made the active and inactive calls. The rule behind the calls is not given here.

Series [1] is described as follows: Ratio of trolox EC50 to compound EC50 for ABTS free radical scavenging activity.
Series [2] concerns THP-1. As to the kind of experiment: Cytotoxicity against PMA-treated human THP1 cells assessed as cell viability at 8 to 10 uM after 48 hrs by SRB assay. It is filed as cell-based. The following applies: thp-1, 48 h.
In series [3] the test system is THP-1. As to the kind of experiment: Antiinflammatory activity in PMA-treated human THP1 cells assessed as inhibition of LPS-induced TNFalpha production at 2 uM incubated for 24 hrs prior to LPS challenge measured after 24 hrs by ELISA. The format is functional, cell-based. (An ELISA detects its analyte on a solid surface through an enzyme-linked reagent.)
The nature of series [4]: Antioxidant activity assessed as ABTS free radical scavenging activity measured up to 6 mins by spectrophotometric analysis. The format is functional.
Series [5] concerns THP-1. As to the kind of experiment: Antiinflammatory activity in PMA-treated human THP1 cells assessed as inhibition of LPS-induced TNFalpha production at 10 uM incubated for 24 hrs prior to LPS challenge measured after 24 hrs by ELISA relative to control. It is filed as functional.
Series [6] concerns THP-1. As to the kind of experiment: Antiinflammatory activity in PMA-treated human THP1 cells assessed as inhibition of LPS-induced TNFalpha production at 8 uM incubated for 24 hrs prior to LPS challenge measured after 24 hrs by ELISA relative to control. The format is functional.
For series [7], the system named is THP-1. As to the kind of experiment: Antiinflammatory activity in PMA-treated human THP1 cells assessed as inhibition of LPS-induced TNFalpha production at 6 uM incubated for 24 hrs prior to LPS challenge measured after 24 hrs by ELISA relative to control. It is filed as functional.

Usually inhibition stands for the drop in the measured response relative to a control, in per cent. By EC50 is commonly meant the concentration giving half of the maximal effect. With `COc1c(C)cc(O)cc1C/C=C(\C)CC(=O)/C=C(/C)CCCC(C)C(=O)/C=C/C(C)(C)O` (centres undefined), the Ratio EC50 in series [1] is 0.98. Also, the Activity entry in series [2] is on record as “Non-toxic”. The inhibition result in series [3] is “inactive”. Further, the EC50 in series [4] was found to be 26.3 µM.

Take `COc1c(C)cc(O)cc1C/C=C(\C)CC(=O)/C=C(\C)CCCC(C)C(=O)/C=C/C(C)(C)O` (centres undefined): in series [1], the Ratio EC50 came to 1.06. Also, the concentration for a half-maximal effect (EC50) in series [4] worked out at 24.5 µM.

As to `COc1c(C)cc(O)cc1C/C=C(\C)CC(=O)/C=C(\C)CCCC(C)(O)C(=O)/C=C/C(C)(C)O` (centres undefined), the Ratio EC50 in series [1] is 0.78. Besides, the Activity result in series [2] is “Non-toxic”. Also, in series [5], the inhibition at 10 µM was 64%. Also, the EC50 in series [4] is 33.1 µM.

Regarding `COc1c(C)cc(O)cc1/C=C/C(C)(O)CC(=O)/C=C(/C)CCCC(C)C(=O)/C=C/C(C)(C)O` (centres undefined) [CYSTODIONE A], the Ratio EC50 in series [1] was 1.15. The Activity entry in series [2] is “Non-toxic”. In series [6], the inhibition at 8 µM was 33%. The EC50 in series [4] came out at 22.5 µM.

`COc1c(C)cc(O)cc1/C=C/C(C)(O)CC(=O)/C=C(\C)CCCC(C)C(=O)/C=C/C(C)(C)O` (centres undefined) [CYSTODIONE B]: in series [1], the Ratio EC50 is 1.06. Moreover, in series [2], the Activity entry was “Non-toxic”. In series [4], the 50% effective concentration (EC50) was found to be 24.4 µM. In addition, the inhibition at 6 µM in series [7] was 11%.

On to `COc1c(C)cc(O)cc1/C=C/C(C)(O)CC(=O)/C=C(/C)CCCC(C)=O` (centres undefined) [CYSTODIONE C], for which, in series [1], the Ratio EC50 came to 0.46. For the same compound, in series [4], the EC50 stood at 55.9 µM.

`COc1c(C)cc(O)cc1/C=C/C(C)(O)CC(=O)/C=C(\C)CCCC(C)=O` (centres undefined) [CYSTODIONE D]: the Ratio EC50 in series [1] was found to be 0.58. Further, the Activity entry in series [2] is “Non-toxic”. The inhibition at 10 µM in series [5] worked out at 11%. Besides, the EC50 in series [4] amounted to 44.7 µM.

As to `COc1c(C)cc(O)cc1C/C=C(\C)CC(=O)/C=C(/C)CCCC(C)=O` [CYSTOMEXICONE A], in series [1], the Ratio EC50 was found to be 0.5. The EC50 in series [4] is 51.6 µM.

Regarding `COc1c(C)cc(O)cc1C/C=C(\C)CC(=O)/C=C(\C)CCCC(C)=O` [CYSTOMEXICONE B], the Ratio EC50 in series [1] is 0.78. The 50% effective concentration (EC50) in series [4] worked out at 33.3 µM.

In the case of `Cc1c(C)c2c(c(C)c1O)CCC(C)(C(=O)O)O2` (centres undefined) [TROLOX], the Ratio EC50 in series [1] was determined as 1. Besides, in series [4], the half-maximal effective concentration (EC50) was 25.9 µM.

Turning to `COc1c(C)cc(O)cc1C/C=C(\C)CC(=O)/C=C(/C)CCCC(C)(O)C(=O)/C=C/C(C)(C)O` (centres undefined) [USNEOIDONE Z], the Ratio EC50 in series [1] came out at 0.6. Besides, the Activity entry in series [2] is on record as “Non-toxic”. In addition, the inhibition at 10 µM in series [5] is 73%. Moreover, in series [4], the EC50 worked out at 43.1 µM.
